Earlier results, collected in US20240207248A1, “METHODS, KITS AND COMPOSITIONS FOR REDUCING CHROMOSOMAL INSTABILITY IN CANCER CELLS” (BARUCH S. BLUMBERG INSTITUTE, priority 2021, published 2024).

System: aneuploid primary mouse embryonic fibroblasts carrying Robertsonian fusion chromosomes
Conditions: energy and proteotoxic stress-inducing compounds

| SMILES | selectivity against aneuploid primary mouse embryonic fibroblasts |
| --- | --- |
| NC(=O)c1ncn([C@@H]2O[C@H](CO)[C@@H](O)[C@H]2O)c1N [AICAR] | showed selectivity |
| C=CCNC1=C2C[C@@H](C)C[C@H](OC)[C@H](O)[C@@H](C)/C=C(\C)[C@H](OC(N)=O)[C@@H](OC)/C=C\C=C(/C)C(=O)NC(=CC1=O)C2=O [17-AAG] | showed selectivity |
